Data as given in ChEMBL document CHEMBL3991601, “The target landscape of clinical kinase drugs” (Science, 2017).
pKd: −log10 of the molar value. Where a name gives a salt, the structure may show the parent alone. The source made the active and inactive calls.

Key:
[1] = biological target: Mitogen-activated protein kinase 1 (Homo sapiens, UniProt P28482)
[2] = biological target: Mitogen-activated protein kinase kinase kinase 4 (Homo sapiens, UniProt Q9Y6R4)
[3] = biological target: Non-receptor tyrosine-protein kinase TYK2 (Homo sapiens, UniProt P29597)
Non-receptor tyrosine-protein kinase TYK2, sequence (P29597 whole entry): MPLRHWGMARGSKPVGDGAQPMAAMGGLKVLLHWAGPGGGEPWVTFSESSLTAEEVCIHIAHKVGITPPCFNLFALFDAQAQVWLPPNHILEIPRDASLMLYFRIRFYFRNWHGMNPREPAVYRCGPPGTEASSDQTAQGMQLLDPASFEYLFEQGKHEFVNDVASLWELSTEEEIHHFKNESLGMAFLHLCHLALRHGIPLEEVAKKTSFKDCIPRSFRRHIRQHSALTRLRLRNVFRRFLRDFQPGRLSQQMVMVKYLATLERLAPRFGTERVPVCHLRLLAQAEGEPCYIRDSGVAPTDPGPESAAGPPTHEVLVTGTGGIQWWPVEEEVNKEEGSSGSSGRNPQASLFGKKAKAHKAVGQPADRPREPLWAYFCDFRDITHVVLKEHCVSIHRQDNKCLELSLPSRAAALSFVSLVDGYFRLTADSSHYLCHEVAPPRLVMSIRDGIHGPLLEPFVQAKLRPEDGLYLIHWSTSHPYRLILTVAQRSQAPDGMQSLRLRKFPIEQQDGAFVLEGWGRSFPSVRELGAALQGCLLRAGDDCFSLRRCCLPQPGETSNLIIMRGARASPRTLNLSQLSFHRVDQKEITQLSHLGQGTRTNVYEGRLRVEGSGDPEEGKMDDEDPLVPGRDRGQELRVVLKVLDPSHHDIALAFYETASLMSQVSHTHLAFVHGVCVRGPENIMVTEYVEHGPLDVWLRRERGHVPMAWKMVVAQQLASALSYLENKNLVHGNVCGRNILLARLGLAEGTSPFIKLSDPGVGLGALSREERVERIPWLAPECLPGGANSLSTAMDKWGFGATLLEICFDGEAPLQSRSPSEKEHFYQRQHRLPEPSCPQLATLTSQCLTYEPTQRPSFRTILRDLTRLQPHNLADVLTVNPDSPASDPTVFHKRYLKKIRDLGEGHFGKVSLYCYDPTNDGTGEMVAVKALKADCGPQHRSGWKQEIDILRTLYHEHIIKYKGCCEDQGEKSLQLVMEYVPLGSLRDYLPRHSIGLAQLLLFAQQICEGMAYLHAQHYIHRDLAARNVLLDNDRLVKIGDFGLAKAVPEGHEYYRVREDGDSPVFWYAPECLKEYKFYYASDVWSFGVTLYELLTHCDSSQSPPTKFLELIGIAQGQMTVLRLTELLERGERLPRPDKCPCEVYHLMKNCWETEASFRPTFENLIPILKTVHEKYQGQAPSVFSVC

[4] = biological target: T1, Mitogen-activated protein kinase kinase kinase 2 (Homo sapiens, UniProt Q9Y2U5)
T1 sequence (Q9Y2U5 whole entry): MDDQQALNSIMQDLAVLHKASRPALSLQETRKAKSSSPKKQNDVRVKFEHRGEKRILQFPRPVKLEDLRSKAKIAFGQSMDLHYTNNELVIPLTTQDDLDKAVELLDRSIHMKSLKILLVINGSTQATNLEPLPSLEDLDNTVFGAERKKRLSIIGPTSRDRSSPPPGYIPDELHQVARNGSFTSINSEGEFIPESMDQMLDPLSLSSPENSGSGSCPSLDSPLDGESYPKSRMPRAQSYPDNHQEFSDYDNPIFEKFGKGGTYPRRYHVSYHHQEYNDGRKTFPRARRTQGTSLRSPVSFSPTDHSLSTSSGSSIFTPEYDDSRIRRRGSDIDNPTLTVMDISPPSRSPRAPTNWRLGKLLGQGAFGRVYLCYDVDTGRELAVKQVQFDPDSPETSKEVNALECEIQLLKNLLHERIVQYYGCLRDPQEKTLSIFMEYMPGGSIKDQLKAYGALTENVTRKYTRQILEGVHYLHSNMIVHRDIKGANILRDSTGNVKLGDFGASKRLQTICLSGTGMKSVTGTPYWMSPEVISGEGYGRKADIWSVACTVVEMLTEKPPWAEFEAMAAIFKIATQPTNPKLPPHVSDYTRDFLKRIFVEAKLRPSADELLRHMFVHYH

[5] = biological target: Ribosomal protein S6 kinase alpha-5 (Homo sapiens, UniProt O75582)
Ribosomal protein S6 kinase alpha-5, sequence (O75582 whole entry): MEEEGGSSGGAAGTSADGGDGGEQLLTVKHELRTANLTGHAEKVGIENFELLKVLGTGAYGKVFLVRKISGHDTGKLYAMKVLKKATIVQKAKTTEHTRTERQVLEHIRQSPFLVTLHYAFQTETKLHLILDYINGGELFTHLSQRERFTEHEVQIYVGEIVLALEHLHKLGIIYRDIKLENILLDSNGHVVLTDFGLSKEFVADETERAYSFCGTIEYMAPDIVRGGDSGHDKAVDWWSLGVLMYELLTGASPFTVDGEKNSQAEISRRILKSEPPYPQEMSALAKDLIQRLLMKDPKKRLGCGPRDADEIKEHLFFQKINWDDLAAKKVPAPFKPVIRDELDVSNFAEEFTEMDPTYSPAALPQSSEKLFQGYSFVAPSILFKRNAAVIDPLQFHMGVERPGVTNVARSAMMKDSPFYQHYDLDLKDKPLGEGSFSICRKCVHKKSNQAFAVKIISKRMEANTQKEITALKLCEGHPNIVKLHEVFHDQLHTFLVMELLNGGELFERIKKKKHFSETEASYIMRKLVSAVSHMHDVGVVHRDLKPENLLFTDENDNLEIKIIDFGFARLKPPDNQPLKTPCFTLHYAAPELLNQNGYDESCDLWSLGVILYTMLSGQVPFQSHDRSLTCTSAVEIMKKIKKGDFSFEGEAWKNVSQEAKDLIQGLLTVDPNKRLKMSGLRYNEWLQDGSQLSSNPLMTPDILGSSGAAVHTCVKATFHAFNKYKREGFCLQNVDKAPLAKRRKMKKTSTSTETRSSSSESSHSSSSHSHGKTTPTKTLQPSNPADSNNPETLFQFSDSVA

Ephrin type-B receptor 6 = biological target: T2, Ephrin type-B receptor 6 (Homo sapiens, UniProt O15197)
T2 sequence (O15197 whole entry): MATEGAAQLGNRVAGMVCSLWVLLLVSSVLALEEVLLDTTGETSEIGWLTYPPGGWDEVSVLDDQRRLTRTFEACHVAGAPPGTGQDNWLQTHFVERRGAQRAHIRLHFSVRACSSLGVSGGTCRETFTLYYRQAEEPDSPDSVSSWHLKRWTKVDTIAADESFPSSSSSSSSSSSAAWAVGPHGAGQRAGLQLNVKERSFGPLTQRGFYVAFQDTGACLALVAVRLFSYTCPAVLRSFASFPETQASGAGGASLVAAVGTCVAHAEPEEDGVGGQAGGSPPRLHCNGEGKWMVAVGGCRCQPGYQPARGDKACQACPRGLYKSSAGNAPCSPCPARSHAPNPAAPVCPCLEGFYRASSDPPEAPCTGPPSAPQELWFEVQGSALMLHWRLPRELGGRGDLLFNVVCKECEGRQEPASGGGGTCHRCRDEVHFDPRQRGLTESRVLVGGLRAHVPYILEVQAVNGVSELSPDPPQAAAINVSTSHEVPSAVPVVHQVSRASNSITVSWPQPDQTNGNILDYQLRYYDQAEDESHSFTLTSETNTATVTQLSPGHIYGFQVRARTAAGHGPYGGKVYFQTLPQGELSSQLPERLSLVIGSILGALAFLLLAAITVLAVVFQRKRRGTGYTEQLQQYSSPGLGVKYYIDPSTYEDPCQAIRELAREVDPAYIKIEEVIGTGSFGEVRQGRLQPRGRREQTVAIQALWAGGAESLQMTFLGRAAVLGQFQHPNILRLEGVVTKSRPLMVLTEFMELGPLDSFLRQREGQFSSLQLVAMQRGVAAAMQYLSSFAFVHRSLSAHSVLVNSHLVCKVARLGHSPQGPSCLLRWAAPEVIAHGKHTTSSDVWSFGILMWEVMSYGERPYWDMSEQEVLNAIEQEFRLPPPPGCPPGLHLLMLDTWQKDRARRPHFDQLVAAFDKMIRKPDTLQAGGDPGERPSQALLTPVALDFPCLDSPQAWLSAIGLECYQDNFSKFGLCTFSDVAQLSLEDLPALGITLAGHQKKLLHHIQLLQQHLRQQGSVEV

[6] = biological target: T3, Cytochrome c1, heme protein, mitochondrial (Homo sapiens, UniProt P08574)
T3 sequence (P08574 whole entry): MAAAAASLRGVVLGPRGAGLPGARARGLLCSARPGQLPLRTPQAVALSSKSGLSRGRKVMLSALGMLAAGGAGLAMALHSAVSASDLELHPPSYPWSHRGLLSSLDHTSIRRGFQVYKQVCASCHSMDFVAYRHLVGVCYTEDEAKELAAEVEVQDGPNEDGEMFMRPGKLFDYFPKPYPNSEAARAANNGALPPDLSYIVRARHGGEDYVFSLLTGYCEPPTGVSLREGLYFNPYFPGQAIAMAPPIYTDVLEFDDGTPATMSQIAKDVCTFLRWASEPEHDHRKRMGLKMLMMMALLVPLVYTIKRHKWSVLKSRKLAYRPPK

[7] = biological target: T4, Peroxisomal acyl-coenzyme A oxidase 3 (Homo sapiens, UniProt O15254)
T4 sequence (O15254 whole entry): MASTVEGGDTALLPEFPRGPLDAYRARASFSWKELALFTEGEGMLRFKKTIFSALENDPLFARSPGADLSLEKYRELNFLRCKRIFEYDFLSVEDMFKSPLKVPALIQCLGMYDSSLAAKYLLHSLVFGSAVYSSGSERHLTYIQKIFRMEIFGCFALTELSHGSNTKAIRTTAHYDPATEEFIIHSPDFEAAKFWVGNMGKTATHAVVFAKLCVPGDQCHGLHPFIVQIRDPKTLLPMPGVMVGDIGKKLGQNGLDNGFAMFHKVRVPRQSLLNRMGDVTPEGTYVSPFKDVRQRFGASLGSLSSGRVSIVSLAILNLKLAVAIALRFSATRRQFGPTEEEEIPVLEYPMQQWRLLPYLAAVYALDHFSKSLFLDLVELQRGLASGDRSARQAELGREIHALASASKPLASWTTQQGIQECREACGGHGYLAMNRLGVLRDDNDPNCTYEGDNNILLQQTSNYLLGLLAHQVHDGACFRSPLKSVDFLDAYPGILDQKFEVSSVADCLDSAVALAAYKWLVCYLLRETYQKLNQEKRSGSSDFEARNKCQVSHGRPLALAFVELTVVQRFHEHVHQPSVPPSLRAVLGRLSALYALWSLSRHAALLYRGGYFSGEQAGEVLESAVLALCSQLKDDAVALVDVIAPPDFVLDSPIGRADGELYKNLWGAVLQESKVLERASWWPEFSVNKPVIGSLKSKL
Note: in the data inactive means no Kd found up to 30 µM.

Mitogen-activated protein kinase kinase kinase 4, sequence (Q9Y6R4 whole entry): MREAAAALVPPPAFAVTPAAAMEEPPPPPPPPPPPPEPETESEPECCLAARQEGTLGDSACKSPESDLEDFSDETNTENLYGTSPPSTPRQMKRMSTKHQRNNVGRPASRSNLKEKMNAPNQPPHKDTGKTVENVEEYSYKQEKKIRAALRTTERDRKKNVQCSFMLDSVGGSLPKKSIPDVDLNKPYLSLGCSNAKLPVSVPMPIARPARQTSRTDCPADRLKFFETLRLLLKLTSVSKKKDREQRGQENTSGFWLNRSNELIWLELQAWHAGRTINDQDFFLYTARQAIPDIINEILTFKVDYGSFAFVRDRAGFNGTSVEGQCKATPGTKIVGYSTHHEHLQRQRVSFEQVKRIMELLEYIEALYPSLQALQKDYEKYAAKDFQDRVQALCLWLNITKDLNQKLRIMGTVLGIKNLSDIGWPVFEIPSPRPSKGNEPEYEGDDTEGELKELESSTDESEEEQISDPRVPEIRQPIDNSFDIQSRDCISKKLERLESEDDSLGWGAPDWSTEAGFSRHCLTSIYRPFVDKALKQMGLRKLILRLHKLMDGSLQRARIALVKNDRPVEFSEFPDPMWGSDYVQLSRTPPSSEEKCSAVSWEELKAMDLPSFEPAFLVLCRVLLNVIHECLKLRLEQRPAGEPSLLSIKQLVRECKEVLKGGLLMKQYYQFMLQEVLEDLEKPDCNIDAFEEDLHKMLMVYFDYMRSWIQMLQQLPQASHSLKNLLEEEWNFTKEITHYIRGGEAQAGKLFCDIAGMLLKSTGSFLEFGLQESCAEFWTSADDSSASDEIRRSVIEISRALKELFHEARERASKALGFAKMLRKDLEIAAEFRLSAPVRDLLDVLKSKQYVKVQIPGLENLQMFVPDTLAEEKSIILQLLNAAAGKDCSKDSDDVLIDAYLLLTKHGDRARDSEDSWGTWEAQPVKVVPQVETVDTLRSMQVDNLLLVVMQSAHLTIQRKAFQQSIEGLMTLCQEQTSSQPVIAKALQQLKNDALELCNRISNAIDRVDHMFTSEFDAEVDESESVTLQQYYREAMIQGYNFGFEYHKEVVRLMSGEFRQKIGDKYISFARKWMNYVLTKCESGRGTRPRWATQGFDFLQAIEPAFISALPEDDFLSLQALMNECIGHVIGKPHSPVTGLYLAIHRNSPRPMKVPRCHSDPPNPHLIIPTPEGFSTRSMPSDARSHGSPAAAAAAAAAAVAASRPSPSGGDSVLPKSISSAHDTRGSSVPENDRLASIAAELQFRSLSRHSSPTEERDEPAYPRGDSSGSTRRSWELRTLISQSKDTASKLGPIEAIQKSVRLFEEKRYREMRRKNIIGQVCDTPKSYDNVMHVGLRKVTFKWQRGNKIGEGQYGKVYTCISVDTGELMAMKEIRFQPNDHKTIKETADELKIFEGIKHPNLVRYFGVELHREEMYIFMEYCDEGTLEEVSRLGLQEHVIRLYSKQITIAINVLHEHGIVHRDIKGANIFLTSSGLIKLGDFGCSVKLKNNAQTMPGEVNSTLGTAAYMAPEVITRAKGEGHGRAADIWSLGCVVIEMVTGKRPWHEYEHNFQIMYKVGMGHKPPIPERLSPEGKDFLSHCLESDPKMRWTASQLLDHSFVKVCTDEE
Mitogen-activated protein kinase 1, sequence (P28482 whole entry): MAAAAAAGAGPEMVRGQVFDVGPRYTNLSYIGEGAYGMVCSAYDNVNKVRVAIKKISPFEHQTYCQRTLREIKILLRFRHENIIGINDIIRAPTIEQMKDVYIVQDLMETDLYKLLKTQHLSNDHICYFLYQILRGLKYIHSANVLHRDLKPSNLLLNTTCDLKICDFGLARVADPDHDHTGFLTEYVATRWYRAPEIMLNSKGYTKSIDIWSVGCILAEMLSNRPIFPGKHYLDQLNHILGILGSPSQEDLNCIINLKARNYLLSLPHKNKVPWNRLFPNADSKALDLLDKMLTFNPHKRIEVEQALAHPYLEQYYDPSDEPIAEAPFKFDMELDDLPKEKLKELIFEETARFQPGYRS

Structure (SMILES) | Kd [1] | Kd [2] | Kd [3] | Kd [4] | Kd [5] | Kd (Ephrin type-B receptor 6) | Kd [6] | Kd [7] | pKd (Ephrin type-B receptor 6)
CCS(=O)(=O)N1CCN(c2ccc(Nc3ncc(C(N)=O)c(NC4CC4)n3)cc2)CC1 [Cerdulatinib Hydrochloride] | > 30 µM (inactive) | > 30 µM (inactive) | 0.032 µM (active) | 0.747 µM (active) | > 30 µM (inactive) | > 30 µM (inactive) | > 30 µM (inactive) | > 30 µM (inactive) | 
Cc1nc2cc(-n3ncc(C(=O)c4cc5ccccc5[nH]4)c3N)ccc2[nH]1 [FGFR INHIBITOR DEBIO 1347] | > 30 µM (inactive) | > 30 µM (inactive) | > 30 µM (inactive) | > 30 µM (inactive) | > 30 µM (inactive) |  | > 30 µM (inactive) | > 30 µM (inactive) | 8.15
Cc1cccc(-c2nn3c(c2-c2ccnc4ccc(C(N)=O)cc24)CCC3)n1 [GALUNISERTIB] | > 30 µM (inactive) | > 30 µM (inactive) | > 30 µM (inactive) | > 30 µM (inactive) | > 30 µM (inactive) | > 30 µM (inactive) | > 30 µM (inactive) | > 30 µM (inactive) | 
COc1ccc(S(=O)(=O)N(C(C)=O)c2ccccc2/C=C/c2cc[n+]([O-])cc2)cc1 [HMN-214] | > 30 µM (inactive) | > 30 µM (inactive) | > 30 µM (inactive) | > 30 µM (inactive) | > 30 µM (inactive) | > 30 µM (inactive) | > 30 µM (inactive) | > 30 µM (inactive) | 
CNC(=O)c1cccc2cc(Oc3ccnc4cc(OCC5(N)CC5)c(OC)cc34)ccc12 [LUCITANIB] | > 30 µM (inactive) | > 30 µM (inactive) | > 30 µM (inactive) | > 30 µM (inactive) | > 30 µM (inactive) | > 30 µM (inactive) | > 30 µM (inactive) | > 30 µM (inactive) | 
CNC(=O)c1nn(C)c2c1C(C)(C)Cc1cnc(Nc3ccc(N4CCN(C)CC4)cc3)nc1-2 [MILCICLIB] | > 30 µM (inactive) | 4.02 µM (active) | > 30 µM (inactive) | > 30 µM (inactive) | > 30 µM (inactive) | > 30 µM (inactive) | > 30 µM (inactive) | > 30 µM (inactive) | 
NC1(c2ccc(-c3nc4ccn5c(=O)[nH]nc5c4cc3-c3ccccc3)cc2)CCC1 [MK-2206] | > 30 µM (inactive) | > 30 µM (inactive) | > 30 µM (inactive) | > 30 µM (inactive) | > 30 µM (inactive) | > 30 µM (inactive) | > 30 µM (inactive) | > 30 µM (inactive) | 
CN(C[C@@H]1COCCO1)S(=O)(=O)Nc1ccc2ccc3ncc(-c4cnn(C)c4)cc3c(=O)c2c1 [MK-2461] | > 30 µM (inactive) | > 30 µM (inactive) | > 30 µM (inactive) | > 30 µM (inactive) | > 30 µM (inactive) | > 30 µM (inactive) | > 30 µM (inactive) | > 30 µM (inactive) | 
Cn1cc(-c2cnc3ccc4ccc(CS(=O)(=O)NCc5ccccn5)cc4c(=O)c3c2)cn1 [MK-8033] | > 30 µM (inactive) | > 30 µM (inactive) | > 30 µM (inactive) | > 30 µM (inactive) | > 30 µM (inactive) | > 30 µM (inactive) | > 30 µM (inactive) | > 30 µM (inactive) | 
FC(F)(F)c1ccc(/C=C/c2nc(COc3ccc(CCCCn4ccnn4)cc3)co2)cc1 [MUBRITINIB] | > 30 µM (inactive) | > 30 µM (inactive) | > 30 µM (inactive) | > 30 µM (inactive) | > 30 µM (inactive) | > 30 µM (inactive) | > 30 µM (inactive) | > 30 µM (inactive) | 
COc1ncc(-c2ccc3nccc(-c4ccnnc4)c3c2)cc1NS(=O)(=O)c1ccc(F)cc1F [OMIPALISIB] | > 30 µM (inactive) | > 30 µM (inactive) | > 30 µM (inactive) | > 30 µM (inactive) | > 30 µM (inactive) | > 30 µM (inactive) | > 30 µM (inactive) | > 30 µM (inactive) | 
CCCCCCCCCCCCCCCCCCOP(=O)([O-])OC1CC[N+](C)(C)CC1 [PERIFOSINE] | > 30 µM (inactive) | > 30 µM (inactive) | > 30 µM (inactive) | > 30 µM (inactive) | > 30 µM (inactive) | > 30 µM (inactive) | > 30 µM (inactive) | > 30 µM (inactive) | 
Cc1nc(Nc2n[nH]c3c2CN(C(=O)N[C@H](CN(C)C)c2ccccc2)C3(C)C)c2sccc2n1 [PF-03758309] | 1.96 µM (active) | > 30 µM (inactive) | > 30 µM (inactive) | > 30 µM (inactive) | 30 µM (active) | > 30 µM (inactive) | > 30 µM (inactive) | > 30 µM (inactive) | 
Cc1cnc(NC(=O)Nc2cc(Br)c(C)cc2OC[C@@H]2CNCCO2)cn1 [RABUSERTIB] | > 30 µM (inactive) | > 30 µM (inactive) | > 30 µM (inactive) | > 30 µM (inactive) | > 30 µM (inactive) | > 30 µM (inactive) | > 30 µM (inactive) | > 30 µM (inactive) | 
CO[C@H]1C[C@@H]2CC[C@@H](C)[C@@](O)(O2)C(=O)C(=O)N2CCCC[C@H]2C(=O)O[C@H]([C@H](C)C[C@@H]2CC[C@@H](OP(C)(C)=O)[C@H](OC)C2)CC(=O)[C@H](C)/C=C(\C)[C@@H](O)[C@@H](OC)C(=O)[C@H](C)C[C@H](C)/C=C/C=C/C=C/1C [RIDAFOROLIMUS] | > 30 µM (inactive) | > 30 µM (inactive) | > 30 µM (inactive) | > 30 µM (inactive) | > 30 µM (inactive) | > 30 µM (inactive) | > 30 µM (inactive) | > 30 µM (inactive) | 
